One test has as its system 22Rv1 cells. The test can be described thus: Prostate cancer cell growth assay, single compound (CellTiter-Glo). Format: cell-based. As to conditions: Homo sapiens, 120 h, 22Rv1 cell growth, 5 days incubation. The method, then:
(§1) Growth assays were done in triplicate and performed as follows.
(§2) 1. On Day 1, LNCaP and 22Rv1 cells were seeded in wells of a 96-well plate at a density of 3000 cells/well in 100 μL of culture media (RPMI 1640 medium supplemented with 10% fetal bovine serum and 1% Penicillin/Streptomycin). Cells were incubated overnight at 37° C. in a humidified atmosphere with 5% CO2.
(§3) 2. On Day 2, for single compound treatment studies, each compound was serially diluted 1:3 in DMSO to create a 9-point titration. A 3 μL aliquot of each dilution was added to 747 μL culture media and 100 μL were added to each triplicate well. Wells containing 0.2% DMSO-treated cells served as uninhibited controls.
(§4) In all studies, cells were incubated at 37° C. in a humidified atmosphere with 5% CO2 for 5 days.
(§5) 3. On Day 7, cell cultures were brought to room temperature for 30 minutes and 50 μL of reconstituted CellTiter-Glo Reagent was added to each well. Plates were shaken at room temperature for approximately 15 minutes Luminescent signal was quantified on a microplate reader.
(§6) 1. For single compound treatment study, all responses were expressed as % inhibition (the percentage inhibition compared to the average response of the DMSO-treated control wells). The data were analyzed by using nonlinear regression to generate IC50 values in Prism (GraphPad, La Jolla, Calif.). 95% confident interval (CI95) of the IC50 values were also calculated in Prism.
(ATP-based viability assays read luminescence as a measure of living cells.)

The test system of the next test is LNCaP cells. Described as above. Format: cell-based. As to conditions: Homo sapiens, 120 h, 5 days incubation. The procedure:
as §1, §2, §3, §4, §5, §6

The mark [1] stands for this setting: n=3, read-out: IC50 (geometric mean).

pIC50: −log10 of the molar value. Where two headings read alike, the source gives them in different places.

With `CC(=O)O[C@H]1CC[C@@]2(C)C(=CC[C@@H]3[C@@H]2CC[C@]2(C)C(c4cccnc4)=CC[C@@H]32)C1` [Abiraterone acetate, abiraterone acetate, reference compound], the negative-log IC50 (pIC50) with 22Rv1 cells (setting [1]) is 4.38; in the test with LNCaP cells (setting [1]), 5.46.

As for `Cc1noc(C)c1-c1cnc2c(-c3ccc(C(=O)O)cc3)cn(C(C)(c3ccccn3)c3ccccn3)c2c1` [Compound I, 4-(1-(1,1-di(pyridin-2-yl)ethyl)-6-(3,5-dimethylisoxazol-4-yl)-1H-pyrrolo[3,2-b]pyridin-3-yl)benzoic acid], the pIC50 in the test with 22Rv1 cells (setting [1]) was 7.47; in the test with 22Rv1 cells (read-out: IC50), 7.47; with LNCaP cells (setting [1]), 7.37; with LNCaP cells (read-out: IC50), 7.37.

Usually pIC50 stands for −log10 of the IC50, conventionally taken in molar units.

The values are drawn from patent publication US11628176B2, “Combinational drug therapies” (Opna Bio SA, priority 2020, dated 2023).
